Measured values as given in US9156790B2, “Anticancer P21-activated kinase inhibitors” (Ohio State Innovation Foundation, priority 2013, dated 2015).

Key:
TPC1 cells = test: MTT cell viability assay, TPC1; type: cell-based, Human; settings: Homo sapiens, TPC1, 72-hours of exposure, 1% FBS, mean±standard deviation (n=3), read-out: IC50 for reducing viability of TPC1 cells versus DMSO control
Excerpt: (§1) Human thyroid cancer BCPAP, TPC1, and FTC133 cell lines were the generous gifts of Drs. Rebecca Schweppe and Bryan Haugen (University of Colorado Denver) (Schweppe et al., The Journal of clinical endocrinology and metabolism 83:4331-4341 (2008)) with permission from the following originating laboratories: BCPAP—Dr. Fabien, Centre Hospitalier Lyon-Sud, France (Fabien et al., Cancer 73:2206-2212 (1994)); TPC1—Dr. Sato, Kanazawa University, Japan (Tanaka et al., Virology 161:62-411 (1987)); and FTC133—Dr. Goretzki, University of Leipzig, Germany (Goretzki et al., Recent Results Cancer Res 118:48-63 (1990)). The obtained cell lines were confirmed for identity by DNA fingerprinting. BCPAP was grown in RPMI 1640 medium (Life Technologies Co., Carlsbad, Calif.) while FTC133 and TPC1 were grown in DMEM (Life Technologies Co.), both supplemented with 10% fetal bovine serum (FBS) and NEAA unless as noted for experiments.
(§2) The effect of OSU-03012 and its derivatives on cell viability was assessed by using the 3-(4,5-dimethylthiazol-2-yl)-2,5-diphenyl-2H-tetrazolium bromide (MTT) assay. Three replicates were performed in each individual experiment, and experiments were repeated at least three separate times. Cells were grown in 96-well plates for 24 hours and were exposed to various concentrations of drugs dissolved in DMSO (final concentration 0.1%) in RPMI 1640 or DMEM containing 1% FBS for 72 hours. 10 μL of 0.5 mg/ml MTT was added to each well and cells were incubated in CO2 at 37° C. for 2 hours. Supernatants were removed from the wells, the reduced MTT dye was solubilized in 100 μL of solution C (12 ml of 1N HCl in 300 mL of isopropanol), and absorbance at 570 nm was determined on a microplate reader.
(§3) We assessed the ability of the compounds to reduce cell viability in vitro by MTT assay after 72 hours of continuous exposure. Results are shown in Table 1 and are depicted as the IC50 vs. simultaneously performed DMSO control.
(§4) ^aThe reported IC50 values are concentrations at which BCPAP, FTC133 and TPC1 cell viability by MTT assays 50% of DMSO control after 72-hours of exposure. Data are presented as mean±standard deviation (n=3). PAK and PDK1 Selectivity In Vivo

FTC133 cells = test: MTT cell viability assay, FTC133; type: cell-based, Human; settings: Homo sapiens, FTC-133, 72-hours of exposure, 1% FBS, mean±standard deviation (n=3), read-out: IC50 for reducing viability of FTC133 cells versus DMSO control
Excerpt: as §1, §2, §3, §4

Recombinant active PAK 1 = target: T1, Recombinant active PAK 1 (Homo sapiens, UniProt Q13153); test: In vitro PAK1 kinase assay (MBP substrate, 32P-ATP); type: biochemical
T1 construct: purchased Calbiochem
T1 sequence (Q13153 whole entry): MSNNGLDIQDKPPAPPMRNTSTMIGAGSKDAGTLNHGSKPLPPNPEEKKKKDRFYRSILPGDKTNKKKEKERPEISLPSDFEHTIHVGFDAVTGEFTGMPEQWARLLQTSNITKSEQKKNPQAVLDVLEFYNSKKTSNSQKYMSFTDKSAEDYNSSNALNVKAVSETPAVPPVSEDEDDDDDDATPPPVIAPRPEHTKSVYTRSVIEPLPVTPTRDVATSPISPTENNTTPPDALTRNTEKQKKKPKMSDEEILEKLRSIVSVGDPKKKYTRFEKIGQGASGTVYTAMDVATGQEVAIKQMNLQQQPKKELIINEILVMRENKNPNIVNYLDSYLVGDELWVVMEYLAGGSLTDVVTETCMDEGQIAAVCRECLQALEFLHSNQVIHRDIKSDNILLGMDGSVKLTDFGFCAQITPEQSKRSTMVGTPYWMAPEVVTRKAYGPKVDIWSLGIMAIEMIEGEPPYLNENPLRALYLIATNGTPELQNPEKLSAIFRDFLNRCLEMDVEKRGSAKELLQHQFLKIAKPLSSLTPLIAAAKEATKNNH
Experimental: Recombinant active PAK 1 (Calbiochem) was incubated with selected derivatives or 0.1% DMSO in the presence or absence of MBP (Sigma) in a 1× kinase buffer (Cell Signaling). The addition of [γ-32P]-ATP (2.5 μCi/reaction) (Perkin Elmer) started the reaction, which was incubated at 30° C. for 30 minutes. The reaction was terminated by the addition of EDTA. Results were obtained after visualization of ^32P-labeled MBP after separation on 12% polyacrylamide gels and autoradiography. For the Lineweaver-Burk plot analysis, the ratio of radioactive ATP to nonradioactive ATP was not altered. The PAK1 kinase activities are the means of three independent experiments quantified using P81 phosphocellulose paper by a scintillation counter after three washes with 0.75% phosphoric acid.
Screening of OSU-03012 Derivatives to Identify PAK1 Inhibitors. The 17 derivatives along with OSU-03012, each at 7.5 μM, were screened for their ability to inhibit PAK1 activity by in vitro PAK1 kinase assay. The dose was chosen (above the IC50 of OSU-03012) to allow OSU-03012 to serve as a robust positive control. The PAK1 kinase assay was performed using recombinant active PAK1 with myelin basic protein as substrate in the presence of 2.5 μM ATP and 7.5 μM of respective inhibitors.
To further investigate these six compounds, dose-response studies on PAK1 activity were performed by using PAK1 kinase assay. […] We next questioned whether compounds 4 or 15 inhibited PAK1 in an ATP competitive manner as their parent compound OSU-03012.

BCPAP cells = test: MTT cell viability assay, BCPAP; type: cell-based, Human; settings: Homo sapiens, BCPAP, 72-hours of exposure, 1% FBS, mean±standard deviation (n=3), read-out: IC50 for reducing viability of BCPAP cells versus DMSO control
Excerpt: as §1, §2, §3, §4

[1] = test system: PAK phosphorylation of Vimentin (Ser56); test: Western blot, PAK phosphorylation of Vimentin (Ser56) in thyroid cancer cells; type: cell-based, Human; settings: 7.5 μM, 6 h, BCPAP, FTC133 and TPC1 cells (FIG. 3)
Experimental: (§5) Protein isolation and Western blot were performed as previously described. Ringel et al., Cancer research 61:6105-6111 (2001). 25 μg of total cell lysates were loaded into 4-12% SDS-PAGE, electrophoresed, and transferred to nitrocellulose membranes for immunoblotting. Primary antibodies against Akt (#9272), phospho-Akt (Thr308) (#2965), p44/42 MAPK (Erk1/2) (#9107), phospho-p44/42 MAPK (Erk1/2) (Thr202/Tyr204) (#4377) and GAPDH (#2118) were obtained from Cell Signaling Technology (Danvers, Mass., USA). Antibody against Vimentin (V6630) and phospho-Ser55 Vimentin were from Sigma-Aldrich, Inc. (St. Louis, Mo.) and MBL Co. (Nagoya, Japan), respectively. Antibodies against total and phosphorylated S6 were from Cell Signaling Technology®.
(§6) The ability of the compounds with in vitro anti-PAK1 activity was assessed for activity […] in thyroid cancer cells. In addition, because the compounds are based on the structure of a PDK1 inhibitor, PDK1 inhibitory activity was also assessed. Inhibitory activity in cells was estimated using Western blot with primary antibodies directed against kinase-specific phosphorylation sites; serine 56 of vimentin for PAK and threonine 308 of Akt for PDK1. BCPAP, TPC1, and FTC133 thyroid cancer cells were utilized. BCPAP and TPC1 are derived from PTC and have BRAF V600E and RET/PTC1 rearrangements, respectively. FTC133 is derived from a follicular thyroid cancer with an inactivating mutation of PTEN. Similar to the kinase screening assay, cells were treated with the six compounds or OSU-03012 at 7.5 μM concentration or with DMSO vehicle alone. The results were not entirely consistent across the three cell lines presumably related to mutation status or other factors. OSU-03012 inhibited both PDK1 and PAK-mediated phosphorylation of targets as predicted.
(§7) The dose-dependency of compounds 4 and 15 was next assessed (FIG. 4). […] Due to the important role that ERK activation plays in thyroid cancer, and its signaling activation by thyroid oncogenes, the effects of the compounds on ERK phosphorylation was also assessed.

PAK = PAK (Homo sapiens, UniProt Q13153); settings: Porchia et al., Mol Pharmacol 72:1124-1131 (2007); cited from earlier work
Sequence of PAK (Q13153 whole entry): as above

[2] = test system: PDK1 phosphorylation of Akt (Thr308); test: Western blot, PDK1 phosphorylation of Akt (Thr308) in thyroid cancer cells; type: cell-based, Human; settings: 7.5 μM, 6 h, BCPAP, FTC133 and TPC1 cells (FIG. 3)
Experimental: as §5, §6, §7

Structure (SMILES) | IC50 (TPC1 cells) | IC50 (FTC133 cells) | IC50 (Recombinant active PAK 1; in vitro kinase assay, read-out: IC50 versus PAK, in vitro (bound implied by chosen test concentration)) | IC50 (BCPAP cells) | PAK phosphorylation of vimentin (Western blot) [1] | PAK inhibitory activity (previously reported) (PAK) | PDK1 phosphorylation of Akt (Thr308) (Western blot) [2] | Inhibition of PAK1 kinase activity in initial screen (Recombinant active PAK 1; 7.5 μM inhibitor, 2.5 μM ATP, myelin basic protein substrate (FIG. 2A)) | Relative PAK1 inhibitory potency (comparison in words) (Recombinant active PAK 1; in vitro kinase assay, comparison between compounds / with OSU-03012)
NCC(=O)Nc1ccc(-n2nc(C(F)(F)F)cc2-c2ccc3c(ccc4ccccc43)c2)cc1 [OSU-03012, reference compound] | 2.8 ± 1.33 µM | 2.93 ± 1.87 µM | < 7.5 µM | 2.93 ± 1.05 µM | inhibited | low micromolar concentrations | inhibited |  | 
NCCC(=O)Nc1ccc(-n2nc(CO)cc2-c2ccc3ccc4ccccc4c3c2)cc1 [Compound 11, 3-Amino-N-(4-(3-(hydroxymethyl)-5-(phenanthren-3-yl)-1H-pyrazol-1-yl)phenyl)-propanamide] | 4.98 ± 1.94 µM | 3.94 ± 2.29 µM |  | 4.5 ± 1.04 µM | did not significantly alter PAK phosphorylation of vimentin |  | markedly inhibit PDK1 phosphorylation of Akt | inhibited PAK1 kinase activity | more potent
